Columns and labels:
[1] = system: heat shock protein of 70 kDa; test: Induction of heat shock protein of 70 kDa in HL-60 cells (SDS-PAGE and blotting); format: cell-based, human; parameters: key to Induction of Heat Shock Proteins: +++: “+” indicates degree of intensity of induction and the more the numbers of “+”, the more the intensity of induction; ++: “+” indicates degree of intensity of induction and the more the numbers of “+”, the more the intensity of induction; “+” indicates degree of intensity of induction and the more the numbers of “+”, the more the intensity of induction; “±” means the induction was slight; “−” means that no induction was noted; conditions: for Induction of Heat Shock Proteins: HL-60 cells, eight hours
Protocol: (1) An RPMI 1640 medium (5 ml) containing 10% of fetal bovine serum which contained 2×10^5 cells/ml of human promyelocytic leukemia cells HL-60 (ATCC CCL-240) was placed in each well of a six-well plate, incubated at 37° C. for 24 hours in the presence of 5% of CO2, then the cyclopentenone described in the referential example L was added thereto to make its final concentration 0, 10, 20, 30, 40, 50, or 100 μM and the incubation was further continued for eight hours more.
After completion of the incubation, cell numbers were counted and the cells were recovered by centrifugation and washed with phosphate-buffered saline (PBS) to prepare cyclopentenone-treated cells. In the meanwhile, cells which were heated at 45° C. for ten minutes followed by subjecting to the same incubation were prepared as well.
The cells treated as such were subjected to an SDS-polyacrylamid gel electrophoresis (SDS-PAGE) by a method mentioned in “Molecular Cloning” [Cold Spring Harbor Laboratory Press, (1989)]. The treated cells were suspended in an SDS-PAGE sample buffer to make the concentration 2.5×10^6 cells/ml, the resulting cell suspension was treated at 100° C. for ten minutes and each 5 μl thereof was applied to two sheets of SDS-PAGE gels (5% stacking gel; 10% separation gel) to conduct anelectrophoresis. One of the gels was Coomassie stained while another gel was subjected to a blotting to a polyvinylidene difluoride transfer membrane (Immobilon™, manufactured by Millipore, catalog no. IPVH000-10). The membrane was subjected to a blocking at 4° C. for one night with Block Ace (manufactured by Dainippon Pharmaceutical; catalog no. UK-B25).
The blocked membrane was made to react with monoclonal antibody HSP 72/73 (Ab-1) (manufactured by Oncogene Research Products, catalog no. HSP01) which would specifically react with heat-induced heat shock protein of 70 kDa and washed with TBS containing 0.05% of Tween 20 followed by further washing with TBS. After that, it was made to react with peroxidase-compounded secondary antibody HRP-Rabbit Anti-Mouse IgG (H+L) (manufactured by Zymed Laboratories, catalog no. 61-6520) and washed by the same manner as in the above operation. The membranes which were treated with primary and secondary antibodies as such were made to react with Renaissance™ (a chemiluminor reagent manufactured by Dupont NEN, catalog no. NEL-100) and photosensitized with an X-ray film to confirm the induction of heat shock protein of 70 kDa.
The result was that, by addition of cyclopentenone (20 to 30 μM), induction of heat shock protein of 70 kDa which is almost same as heat-treated at 45° C. for 10 minutes was confirmed. In Table 1, “+” indicates degree of intensity of induction and the more the numbers of “+”, the more the intensity of induction. Incidentally, “−” means that no induction was noted and “±” means the induction was slight.

[2] = system: 70 kd heat shock proteins; test: Expression of 70 kd heat shock proteins in HeLa cells (SDS-PAGE and blotting); format: cell-based; parameters: key: +++: the sign “+” shows the potency of signals of the 70 kd heat shock proteins observed in the blotting the more the numbers of +, the more potent the signals; ++: the sign “+” shows the potency of signals of the 70 kd heat shock proteins observed in the blotting the more the numbers of +, the more potent the signals; the sign “+” shows the potency of signals of the 70 kd heat shock proteins observed in the blotting the more the numbers of +, the more potent the signals; The sign “±” means that the signal was very weak; conditions: six hours
Protocol: The medium was discarded, 1 ml of 10% trichloroacetic acid was added to each of the wells and the cells were recovered by a scraper.
The cells prepared as such were subjected to an SDS-PAGE and a blotting according to a method of Example 1 to detect the expression of 70 kd heat shock proteins.
As a result, induction of the 70 kd heat shock proteins noted in the sections to which the cyclopentenone of from 5 μM to 40 μM was added. […] The sign “±” means that the signal was very weak.

[3] = system: adenovirus of type 5 (Adenoid 75; ATCC VR-5); test: Adenovirus hexon protein in HeLa cells, cyclopentenone added after infection; format: cell-based; conditions: 10 μM or more, 20 hours
Protocol: (4) After HeLa cells were incubated by the same manner as in Example 2-(2), DMEM containing 5% of fetal bovine serum which contained adenovirus of type 5 (Adenoid 75; ATCC VR-5) was added to the cells without addition of the cyclopentenone whereby the cells were infected by that. […] After the incubation, detection of hexon proteins of adenovirus was conducted by the same manner as in Example 2-(2).

[4] = system: NIH3T3/E7-2; test: Colony formation of HPV16 type E7-transformed cell strain NIH3T3/E7-2; format: cell-based; conditions: 5 μM
Protocol: Each incubation was conducted in three runs.

[5] = system: CEM-SS cells; test: Survival rate of human T cells, CEM-SS; format: cell-based; conditions: 0.5-5 m M, three days
[6] = system: H9 cells; test: Survival rate of human T cells, H9; format: cell-based; conditions: three days
[7] = system: HIV-1IIIB; test: p24 antigen in supernatant liquid of H9-3B culture; format: cell-based; conditions: three days
Protocol: The cyclopentenone (1-5 μM) was added to CEM-SS cells infected by HIV-1IIIB (abbreviated as CEM-3B) or to H9 cells infected by HIV-1IIIB (abbreviated as H9-3B) and incubated for three days. In both cells, 90% or more of the cells were infected by HIV-1IIIB. Numbers of living and dead cells were counted and the survival rate of the cells was calculated therefrom.
Concentration of the p24 antigen contained in the supernatant liquid of the culture after incubation for three days in the case of Example 5-(2) was measured. The result was that the concentration of p24 decreased corresponding to the centration of the cyclopentenone added thereto whereupon the anti-HIV action was noted. In Table 10, the figures in parentheses are the ratio of each of the supernatant liquid of the cell cultures (when none of the cyclopentenone was added) to the concentration of p24 expressed in terms of %.

[8] = Single oral administration toxicity in rats; format: in vivo; conditions: single oral administration of 100 mg/kg

For O=C1C=CC(O)C1O (stereo not shown) [cyclopentenone, 4,5-dihydroxy-2-cyclopenten-1-one], the “concentration at which the ability for inducing HSP70 becomes maximum” value [1] was 20 to 30 µM, the “concentration at which the ability for inducing HSP70 is noted” value [1] was 10 µM and the “Induction of Heat Shock Proteins” value ([1]; 10 μM) was “+”. For the same molecule, the “Induction of Heat Shock Proteins” value ([1]; 20 μM) was “+++”, the “Induction of Heat Shock Proteins” value ([1]; 30 μM) was “+++” and the “Induction of Heat Shock Proteins” value ([1]; 40 μM) was “++”. The “Induction of Heat Shock Proteins” value ([1]; 50 μM) was “+”, the “Induction of Heat Shock Proteins” value ([1]; 100 μM) was “±” and the “ability inducing the HSP70 compared with prostaglandin A1” value ([1]; compared in molar concentration) was “equivalent”. The “Amount of 70 kd of Heat Shock Proteins” value ([2]; 5 μM) was “+”, the “Amount of 70 kd of Heat Shock Proteins” value ([2]; 10 μM) was “++” and the “Amount of 70 kd of Heat Shock Proteins” value ([2]; 20 μM) was “+++”. For the same molecule, the “Amount of 70 kd of Heat Shock Proteins” value ([2]; 40 μM) was “+++”, the “amount of hexon proteins compared with the control” value [3] was “apparent decrease” and the “sensitivity of the cells into which E7 was introduced compared with the control cells” value [4] was “high sensitivity”. For the same molecule, the “Numbers (average ± SD) of the Colonies” value ([4]; nine days, NIH3T3/E7-2, three runs) was 22.3 ± 3.5, the “survival rate of the cells” value [5] was “no significant decrease” and the “survival rate of the cells” value [6] was “no significant decrease”. For the same molecule, the “Concentration of p24 in Supernatant Liquid of the cell cultures” value (“Concentration of p24 … of the cell cultures” below) ([7]; 1 μM) was 203 ng/mL, the “ratio to the concentration of p24 when none of the cyclopentenone was added” value (shortened to “ratio to the concentration of p24”) ([7]; 1 μM) was 97% and the “Concentration of p24 … of the cell cultures” value ([7]; 3 μM) was 157 ng/mL. For the same molecule, the “ratio to the concentration of p24” value ([7]; 3 μM) was 75%, the “Concentration of p24 … of the cell cultures” value ([7]; 5 μM) was 148 ng/mL and the “ratio to the concentration of p24” value ([7]; 5 μM) was 70%. The dead cases [8] was “no dead case”.
